Data from the supplement of paper PMC12463676, “Small-molecule dissolution of stress granules by redox modulation benefits ALS models” (Nature Chemical Biology, 2025).

Key:
[1] = compound: O=[As]([O-])(O)O.[K+] [potassium arsenate]; experiment: thermal stability z-score vs DMSO; higher = more thermally stabilized by treatment; conditions: HeLa; arsenate concentration 1 mM
Experimental: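 Cellular thermal proteome profiling in HeLa cells treated with 1 mM arsenate for 1 h (DMSO pretreatment), heated to ten temperatures (37-66.3 °C). Soluble protein was quantified by TMT mass spectrometry relative to DMSO controls; the thermal stability score was transformed to a z-score; mean of n = 3 experiments.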

[2] = compound: NC(=O)CCCCC1CCSS1 [lipoamide]; experiment: as above; conditions: HeLa, lipoamide concentration 100 µM
Experimental: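 Cellular thermal proteome profiling in HeLa cells. Cells were treated with 100 µM lipoamide for 1 h, with or without 1 mM arsenate for a further 1 h, then heated to ten temperatures (37-66.3 °C), and soluble protein was quantified by TMT mass spectrometry relative to 0.1% DMSO controls. The thermal stability score (sum of log2 fold changes minus the abundance score) was transformed to a z-score; mean of n = 3 experiments.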

[3] = arsenate co-treatment: 1 mM arsenate 1 h
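Note: each temperature applied for 3 min, abundance score taken as mean log2 fold change at the two lowest temperatures, z-score obtained by mean subtraction and division by SD.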

UniProt Q9HCE5, sequence (Q9HCE5 whole entry): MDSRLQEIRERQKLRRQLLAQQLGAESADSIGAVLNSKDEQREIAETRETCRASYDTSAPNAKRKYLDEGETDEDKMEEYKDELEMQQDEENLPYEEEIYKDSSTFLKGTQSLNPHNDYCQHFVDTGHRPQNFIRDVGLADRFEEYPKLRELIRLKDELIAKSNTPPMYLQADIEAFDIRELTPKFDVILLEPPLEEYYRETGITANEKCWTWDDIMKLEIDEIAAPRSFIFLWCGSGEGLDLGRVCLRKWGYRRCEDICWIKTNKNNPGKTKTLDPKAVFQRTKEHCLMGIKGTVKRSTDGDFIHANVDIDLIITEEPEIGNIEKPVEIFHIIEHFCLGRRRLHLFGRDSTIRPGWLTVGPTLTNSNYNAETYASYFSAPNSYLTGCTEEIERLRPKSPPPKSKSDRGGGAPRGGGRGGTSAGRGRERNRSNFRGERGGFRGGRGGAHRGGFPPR
UniProt O95822, sequence (O95822 whole entry): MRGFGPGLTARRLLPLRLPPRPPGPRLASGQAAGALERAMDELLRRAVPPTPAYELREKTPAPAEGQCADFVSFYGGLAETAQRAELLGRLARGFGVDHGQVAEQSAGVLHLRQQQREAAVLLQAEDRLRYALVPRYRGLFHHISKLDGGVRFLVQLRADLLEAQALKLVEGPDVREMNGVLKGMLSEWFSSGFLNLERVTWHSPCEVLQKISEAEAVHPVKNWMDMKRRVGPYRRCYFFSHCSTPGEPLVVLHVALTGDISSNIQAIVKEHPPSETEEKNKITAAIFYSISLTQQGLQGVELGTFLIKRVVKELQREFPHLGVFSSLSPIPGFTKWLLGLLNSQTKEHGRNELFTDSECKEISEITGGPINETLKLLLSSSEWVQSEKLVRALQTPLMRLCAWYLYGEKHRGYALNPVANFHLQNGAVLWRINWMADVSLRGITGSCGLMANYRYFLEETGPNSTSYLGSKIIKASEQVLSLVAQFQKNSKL
UniProt Q10469, sequence (Q10469 whole entry): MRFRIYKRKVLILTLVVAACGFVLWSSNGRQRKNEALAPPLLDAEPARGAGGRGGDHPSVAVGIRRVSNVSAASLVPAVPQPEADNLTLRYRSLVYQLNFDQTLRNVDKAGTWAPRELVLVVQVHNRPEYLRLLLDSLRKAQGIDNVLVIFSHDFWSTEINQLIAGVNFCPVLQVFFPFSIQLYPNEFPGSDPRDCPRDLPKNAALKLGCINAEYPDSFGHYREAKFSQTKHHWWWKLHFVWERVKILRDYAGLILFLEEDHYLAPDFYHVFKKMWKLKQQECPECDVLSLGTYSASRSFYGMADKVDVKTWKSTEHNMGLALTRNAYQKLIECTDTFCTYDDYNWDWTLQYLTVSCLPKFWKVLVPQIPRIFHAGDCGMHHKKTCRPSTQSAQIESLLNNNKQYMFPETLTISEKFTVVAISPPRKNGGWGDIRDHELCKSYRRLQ
UniProt Q9GZY8, sequence (Q9GZY8 whole entry): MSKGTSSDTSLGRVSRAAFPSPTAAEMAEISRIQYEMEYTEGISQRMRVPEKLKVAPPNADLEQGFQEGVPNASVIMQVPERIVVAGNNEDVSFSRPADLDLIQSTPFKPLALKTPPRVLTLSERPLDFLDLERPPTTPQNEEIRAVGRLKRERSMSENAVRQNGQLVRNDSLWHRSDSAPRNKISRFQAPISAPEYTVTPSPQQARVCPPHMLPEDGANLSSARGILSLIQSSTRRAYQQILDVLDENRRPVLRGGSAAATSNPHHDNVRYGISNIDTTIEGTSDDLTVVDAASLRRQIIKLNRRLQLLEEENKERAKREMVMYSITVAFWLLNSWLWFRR
UniProt Q86W50, sequence (Q86W50 whole entry): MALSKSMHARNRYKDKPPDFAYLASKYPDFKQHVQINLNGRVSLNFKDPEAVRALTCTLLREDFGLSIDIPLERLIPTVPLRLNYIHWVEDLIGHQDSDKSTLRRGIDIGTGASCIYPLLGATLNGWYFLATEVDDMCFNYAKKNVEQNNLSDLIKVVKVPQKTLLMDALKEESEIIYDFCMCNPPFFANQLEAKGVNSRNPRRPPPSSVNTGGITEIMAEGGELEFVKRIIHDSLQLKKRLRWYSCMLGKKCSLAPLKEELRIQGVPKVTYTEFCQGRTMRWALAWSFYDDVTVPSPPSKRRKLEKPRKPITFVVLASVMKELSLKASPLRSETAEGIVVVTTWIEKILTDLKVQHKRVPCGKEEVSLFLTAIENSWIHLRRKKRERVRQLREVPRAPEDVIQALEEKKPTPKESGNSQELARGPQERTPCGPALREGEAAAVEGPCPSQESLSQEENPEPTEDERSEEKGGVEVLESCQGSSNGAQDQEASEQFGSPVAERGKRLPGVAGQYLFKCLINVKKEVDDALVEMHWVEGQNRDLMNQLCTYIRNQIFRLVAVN
UniProt Q9UHC7, sequence (Q9UHC7 whole entry): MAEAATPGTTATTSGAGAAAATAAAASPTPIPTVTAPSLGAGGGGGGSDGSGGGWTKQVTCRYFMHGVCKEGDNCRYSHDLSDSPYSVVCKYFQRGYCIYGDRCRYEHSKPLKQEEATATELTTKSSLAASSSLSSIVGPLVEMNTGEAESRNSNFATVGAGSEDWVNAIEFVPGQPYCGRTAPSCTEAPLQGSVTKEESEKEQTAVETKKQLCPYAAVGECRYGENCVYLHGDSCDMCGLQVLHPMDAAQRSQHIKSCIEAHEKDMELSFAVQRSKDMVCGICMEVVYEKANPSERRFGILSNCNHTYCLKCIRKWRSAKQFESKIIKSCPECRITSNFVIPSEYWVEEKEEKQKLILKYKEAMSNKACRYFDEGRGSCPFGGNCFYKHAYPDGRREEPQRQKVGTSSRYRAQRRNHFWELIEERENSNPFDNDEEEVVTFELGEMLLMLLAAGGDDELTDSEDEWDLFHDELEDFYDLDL
UniProt O14880, sequence (O14880 whole entry): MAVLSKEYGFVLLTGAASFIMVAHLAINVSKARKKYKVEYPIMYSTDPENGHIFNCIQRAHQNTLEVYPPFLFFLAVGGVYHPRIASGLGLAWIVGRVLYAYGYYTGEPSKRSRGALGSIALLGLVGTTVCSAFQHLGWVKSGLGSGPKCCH
UniProt Q9H8H3, sequence (Q9H8H3 whole entry): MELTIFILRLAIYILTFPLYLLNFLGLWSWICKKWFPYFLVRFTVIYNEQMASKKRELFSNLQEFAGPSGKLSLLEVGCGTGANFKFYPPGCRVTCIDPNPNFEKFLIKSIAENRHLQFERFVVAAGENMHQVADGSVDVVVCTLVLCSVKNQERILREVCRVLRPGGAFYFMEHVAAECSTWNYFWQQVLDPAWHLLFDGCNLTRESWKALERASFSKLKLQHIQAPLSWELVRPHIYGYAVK
UniProt O60502, sequence (O60502 whole entry): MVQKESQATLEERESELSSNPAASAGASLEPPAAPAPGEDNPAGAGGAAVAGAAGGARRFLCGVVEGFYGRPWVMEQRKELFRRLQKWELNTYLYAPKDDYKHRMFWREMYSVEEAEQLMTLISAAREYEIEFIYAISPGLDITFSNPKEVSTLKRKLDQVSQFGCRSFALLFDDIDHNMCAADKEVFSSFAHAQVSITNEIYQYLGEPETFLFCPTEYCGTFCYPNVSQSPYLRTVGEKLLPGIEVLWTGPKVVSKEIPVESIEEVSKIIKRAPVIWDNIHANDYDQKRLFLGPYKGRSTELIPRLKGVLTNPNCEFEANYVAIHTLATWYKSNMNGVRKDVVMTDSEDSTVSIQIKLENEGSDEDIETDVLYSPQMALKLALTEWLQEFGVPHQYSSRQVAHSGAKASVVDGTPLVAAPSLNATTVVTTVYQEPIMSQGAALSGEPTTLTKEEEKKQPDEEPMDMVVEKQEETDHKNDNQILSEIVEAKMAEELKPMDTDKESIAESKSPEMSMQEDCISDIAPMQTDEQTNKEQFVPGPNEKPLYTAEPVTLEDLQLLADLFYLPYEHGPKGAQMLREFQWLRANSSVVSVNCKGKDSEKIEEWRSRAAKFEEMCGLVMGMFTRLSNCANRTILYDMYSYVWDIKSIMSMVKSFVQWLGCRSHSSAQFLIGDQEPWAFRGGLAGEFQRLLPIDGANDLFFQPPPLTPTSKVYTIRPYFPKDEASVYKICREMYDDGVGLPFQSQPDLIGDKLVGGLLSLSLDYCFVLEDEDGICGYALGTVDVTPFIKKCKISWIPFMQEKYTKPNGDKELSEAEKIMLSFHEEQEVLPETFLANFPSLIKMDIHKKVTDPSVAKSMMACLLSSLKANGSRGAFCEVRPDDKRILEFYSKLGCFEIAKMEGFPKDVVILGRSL
UniProt P14174, sequence (P14174 whole entry): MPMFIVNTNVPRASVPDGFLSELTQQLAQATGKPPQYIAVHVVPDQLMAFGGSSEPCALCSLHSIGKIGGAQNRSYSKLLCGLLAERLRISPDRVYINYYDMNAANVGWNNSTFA
UniProt Q8IUF8, sequence (Q8IUF8 whole entry): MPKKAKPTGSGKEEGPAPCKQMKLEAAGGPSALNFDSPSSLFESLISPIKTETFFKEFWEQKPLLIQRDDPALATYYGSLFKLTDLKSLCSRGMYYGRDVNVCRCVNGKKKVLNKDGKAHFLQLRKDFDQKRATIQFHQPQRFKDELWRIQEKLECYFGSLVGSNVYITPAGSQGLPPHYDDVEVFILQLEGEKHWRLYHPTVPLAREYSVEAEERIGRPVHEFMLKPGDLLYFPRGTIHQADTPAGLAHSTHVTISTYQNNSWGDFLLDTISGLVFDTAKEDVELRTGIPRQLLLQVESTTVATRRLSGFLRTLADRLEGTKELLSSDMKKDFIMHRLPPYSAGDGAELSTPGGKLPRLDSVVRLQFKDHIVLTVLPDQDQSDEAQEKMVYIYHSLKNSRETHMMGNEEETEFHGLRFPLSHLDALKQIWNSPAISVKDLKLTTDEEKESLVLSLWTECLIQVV
UniProt Q9NRN9, sequence (Q9NRN9 whole entry): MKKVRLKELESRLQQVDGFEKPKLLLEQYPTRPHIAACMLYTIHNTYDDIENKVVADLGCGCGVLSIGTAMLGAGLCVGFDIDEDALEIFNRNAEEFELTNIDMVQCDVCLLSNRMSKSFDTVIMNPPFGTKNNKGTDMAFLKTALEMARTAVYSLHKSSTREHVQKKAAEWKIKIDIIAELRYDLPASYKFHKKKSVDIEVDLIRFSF

| Target | thermal stability z-score [1] | thermal stability z-score [2, 3] | thermal stability z-score ([2]; arsenate co-treatment: none) |
| --- | --- | --- | --- |
| METTL2B (UniProt Q6P1Q9) | -0.0568 | -0.019 | -0.11 |
| METTL3 (UniProt Q86U44) | 0.165 | -0.16 | 0.0119 |
| METTL5 (UniProt Q9NRN9) | 0.233 | 0.768 | -0.318 |
| METTL7A (UniProt Q9H8H3) | 0.632 | 2.84 | 2.54 |
| METTL10 (UniProt Q5JPI9) | 0.206 | -0.0093 | 0.0402 |
| METTL13 (UniProt Q8N6R0) | 0.0691 | -0.507 | -0.621 |
| METTL14 (UniProt Q9HCE5) | -0.164 | 0.355 | -0.836 |
| METTL15 (UniProt A6NJ78) | 0.348 | 0.0439 | -0.103 |
| METTL16 (UniProt Q86W50) | -0.0708 | -0.248 | -0.347 |
| METTL21A (UniProt Q8WXB1) | 0.26 | 0.425 | -0.307 |
| MFAP1 (UniProt P55081) | 1.73 | 0.755 | 0.245 |
| MFF (UniProt Q9GZY8) | 0.0903 | -0.338 | -0.0711 |
| MFN1 (UniProt Q8IWA4) | 0.157 | -0.522 | -0.191 |
| MFN2 (UniProt O95140) | 0.252 | -0.0814 | -0.338 |
| MFSD4B (UniProt Q5TF39) | -0.129 | -0.227 | 0.265 |
| MFSD5 (UniProt Q6N075) | 0.661 | 0.0483 | 0.442 |
| MFSD12 (UniProt Q6NUT3) | 1.14 | -0.485 | -1.79 |
| MGAT1 (UniProt P26572) | -0.0516 | -0.313 | -0.685 |
| MGAT2 (UniProt Q10469) | 0.24 | -0.206 | -0.0594 |
| MGAT4B (UniProt Q9UQ53) | 0.26 | 0.713 | -0.264 |
| MGEA5 (UniProt O60502) | -0.187 | -0.365 | -0.157 |
| MGLL (UniProt Q99685) | -0.132 | 0.592 | 0.117 |
| MGME1 (UniProt Q9BQP7) | -0.00686 | 0.201 | 0.117 |
| MGRN1 (UniProt O60291) | -0.181 | -0.792 | -0.153 |

| Target | thermal stability z-score [1] | thermal stability z-score [2, 3] | thermal stability z-score ([2]; arsenate co-treatment: none) |
| --- | --- | --- | --- |
| MGST1 (UniProt P10620) | 0.892 | 0.304 | -0.147 |
| MGST3 (UniProt O14880) | 2.22 | 0.65 | 0.431 |
| MIA3 (UniProt Q5JRA6) | 1.39 | -3.32 | -2.72 |
| MIB1 (UniProt Q86YT6) | -1.05 | -0.621 | -0.586 |
| MICA (UniProt Q29983) | -0.775 | -1.72 | -3.33 |
| MICAL3 (UniProt Q7RTP6) | 0.0242 | 0.231 | 0.334 |
| MICALL1 (UniProt Q8N3F8) | -0.602 | -0.217 | 0.212 |
| MICALL2 (UniProt Q8IY33) | -0.0438 | -0.157 | 0.00775 |
| MICU1 (UniProt Q9BPX6) | 0.746 | -0.305 | -0.0396 |
| MICU2 (UniProt Q8IYU8) | 0.583 | -0.422 | -0.315 |
| MID1 (UniProt O15344) | -0.963 | -0.525 | -0.224 |
| MID1IP1 (UniProt Q9NPA3) | 0.151 | -0.135 | 0.206 |
| MIEF1 | -0.198 | -0.243 | -0.035 |
| MIEN1 (UniProt Q9BRT3) | 0.969 | 0.165 | -0.595 |
| MIER1 (UniProt Q8N108) | 0.0984 | 1.22 | 1.38 |
| MIF4GD (UniProt A9UHW6) | -0.165 | 0.658 | 0.0749 |
| MIF (UniProt P14174) | -0.0642 | 0.245 | -0.0795 |
| MINA (UniProt Q8IUF8) | -1.34 | 0.0507 | 0.508 |
| MINK1 (UniProt Q8N4C8) | -0.0337 | -0.526 | 0.0558 |
| MINPP1 (UniProt Q9UNW1) | -0.105 | -3.92 | -4.05 |
| MIOS (UniProt Q9NXC5) | -0.469 | 0.0112 | 0.085 |
| MIPEP (UniProt Q99797) | -0.271 | -0.162 | 0.0258 |
| MIS12 (UniProt Q9H081) | 0.00203 | -0.0248 | -0.061 |
| MIS18A (UniProt Q9NYP9) | 0.683 | -0.127 | 0.246 |

| Target | thermal stability z-score [1] | thermal stability z-score [2, 3] | thermal stability z-score ([2]; arsenate co-treatment: none) |
| --- | --- | --- | --- |
| MISP (UniProt Q8IVT2) | -0.461 | 0.196 | 0.386 |
| MITD1 (UniProt Q8WV92) | 0.168 | 0.39 | 0.109 |
| MITF (UniProt O75030) | 0.297 | -0.413 | -0.377 |
| MKI67 (UniProt P46013) | 0.155 | 1.7 | 1.37 |
| MKL2 (UniProt Q9ULH7) | 0.418 | -0.208 | -0.342 |
| MKLN1 (UniProt Q9UL63) | -0.403 | -0.128 | -0.114 |
| MKNK1 (UniProt Q9BUB5) | -1.53 | -0.146 | -0.928 |
| MKNK2 (UniProt Q9HBH9) | 0.192 | -0.569 | 0.232 |
| MKRN1 (UniProt Q9UHC7) | -0.138 | -0.0831 | -0.0834 |
| MKRN2 (UniProt Q9H000) | -0.0571 | 0.303 | 0.829 |
| MLEC (UniProt Q14165) | 0.385 | -3.66 | -2.94 |
| MLH1 (UniProt P40692) | 1.04 | -0.0694 | 0.372 |
| MLKL (UniProt Q8NB16) | -1.45 | 0.561 | 0.379 |
| MLLT1 (UniProt Q03111) | -0.0158 | -0.182 | -0.111 |
| MLLT4 (UniProt P55196) | -0.113 | -0.572 | -0.126 |
| MLST8 (UniProt Q9BVC4) | 0.14 | -0.537 | 0.0244 |
| MLX (UniProt Q9UH92) | 0.0805 | -0.0303 | -0.272 |
| MLYCD (UniProt O95822) | 0.837 | 0.771 | 0.713 |
| MMAA (UniProt Q8IVH4) | -1.04 | 0.33 | -0.0208 |
| MMAB (UniProt Q96EY8) | -0.58 | -1.28 | -1.35 |
| MMACHC (UniProt Q9Y4U1) | -0.12 | -0.0163 | -0.159 |
| MME (UniProt P08473) | 0.585 | -0.46 | -1.37 |
| MMGT1 (UniProt Q8N4V1) | 0.966 | 0.584 | 0.397 |
